≈ marks a conversion by molar mass, not a printed value. Positions of bridges follow the written chain, without caps; N, C: chain ends. Non-standard residues stand in square brackets, D forms with d. Residues, ends and D or L forms follow the SMILES beside them. *: point of attachment. Decanoyl(3R-OH) = CCCCCCC[C@@H](O)CC(=O)*; dIgl = N[C@@H](C(=O)O)C1Cc2ccccc2C1; Igl = N[C@H](C(=O)O)C1Cc2ccccc2C1; 4Pal = N[C@@H](Cc1ccncc1)C(=O)O; dChg = N[C@@H](C(=O)O)C1CCCCC1; dDab = NCC[C@@H](N)C(=O)O; Octanoyl = CCCCCCCC(=O)*; dDap = NC[C@@H](N)C(=O)O; Dab = NCC[C@H](N)C(=O)O
Assays:
[1] = test system: P. aeruginosa GN_105, PmxR; settings: GN 105, PmxR
How it was run: (§1)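 Mid-log cultures grown in Mueller Hinton broth at 37° C were tested by 2-fold broth microdilution at 5×10^5 CFU/mL final. Compounds were dissolved in water and tested over a final range of 32 to 0.015 μg/mL.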

E. coli ATCC 25922 = settings: ATCC 25922
How it was run: as §1

[2] = test system: P. aeruginosa GN_043, PmxR; settings: polymyxin-resistant
How it was run: as §1

[3] = test system: S. aureus ATCC 25923, MSSA; settings: ATCC 25923
How it was run: as §1

A. baumannii GN_093 PmxR = settings: GN 093 PmxR
How it was run: as §1

A. baumannii ATCC 19606 = settings: ATCC 19606
How it was run: as §1

K. pneumoniae ATCC 13883 = settings: ATCC 13883
How it was run: as §1

P. aeruginosa ATCC 27853 = settings: ATCC 27853
How it was run: as §1

[4] = test system: K. pneumoniae ATCC 700603, MDR; settings: ATCC 700603
How it was run: as §1

[5] = test system: K. pneumoniae GN_106, PmxR; settings: GN 106, PmxR
How it was run: as §1

[6] = test system: K. pneumoniae ATCC BAA-2146, NDM-1 pos; settings: ATCC BAA-2146
How it was run: as §1

[7] = test system: K. pneumoniae GN_102 PmxR; settings: GN 102 PmxR
How it was run: as §1

in vitro = settings: human
How it was run: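 Cells were seeded at 4000 per well and allowed to attach for 24 h at 37 °C, 5% CO2, then exposed to compounds for 24 h. Resazurin (5 μM) was added for 2 h at 37 °C and fluorescence read at 560/590 nm. CC50 was derived by curve fitting of dose-dependent growth inhibition.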

SMILES | MIC P. aeruginosa GN_105, PmxR [1] [µg/mL] | MIC E. coli ATCC 25922 (E. coli ATCC 25922) [µg/mL] | MIC P. aeruginosa GN_043, PmxR [2] [µg/mL] | MIC S. aureus ATCC 25923, MSSA [3] [µg/mL] | MIC A. baumannii GN_093 PmxR (A. baumannii GN_093 PmxR) [µg/mL] | MIC A. baumannii ATCC 19606 (A. baumannii ATCC 19606) [µg/mL] | MIC K. pneumoniae ATCC 13883 (K. pneumoniae ATCC 13883) [µg/mL] | MIC P. aeruginosa ATCC 27853 (P. aeruginosa ATCC 27853) [µg/mL] | MIC K. pneumoniae ATCC 700603, MDR [4] [µg/mL] | MIC K. pneumoniae GN_106, PmxR [5] [µg/mL] | MIC K. pneumoniae ATCC BAA-2146, NDM-1 pos [6] [µg/mL] | MIC K. pneumoniae GN_102 PmxR [7] [µg/mL] | CC50 at 24 h (in vitro) [µM]
CCCCCCC[C@@H](O)CC(=O)N[C@H](CN)C(=O)N[C@H]1CCNC(=O)[C@H](Cc2c[nH]c3ccccc23)NC(=O)[C@H](CCCNC(=N)N)NC(=O)[C@H](CCCCN)NC(=O)[C@H](CC(C)C)NC(=O)[C@@H](C2Cc3ccccc3C2)NC(=O)[C@H](CCN)NC1=O [compound 8896, 3(R)OH-nC9CO-D-Dap-cyc[L-Dab-L-Dab-D-indanylgly-L-Leu-L-Lys-L-Arg-L-Trp]] ({Decanoyl(3R-OH)}-[dDap][Dab][Dab][dIgl]LKRW; lactam 2-C) | 2 (≈ 1.65 µM) | 2 (≈ 1.65 µM) | 4 (≈ 3.3 µM) | 2 (≈ 1.65 µM) | 16 (≈ 13.2 µM) | 8 (≈ 6.59 µM) | 8 (≈ 6.59 µM) | 4 (≈ 3.3 µM) | 2 (≈ 1.65 µM) | 4 (≈ 3.3 µM) | 2 (≈ 1.65 µM) | 16 (≈ 13.2 µM) | 102
CCCCCCC[C@@H](O)CC(=O)N[C@H](CN)C(=O)N[C@H]1CCNC(=O)[C@H](Cc2c[nH]c3ccccc23)NC(=O)[C@H](CCN)NC(=O)[C@H](CCN)NC(=O)[C@H](C2Cc3ccccc3C2)NC(=O)[C@@H](C2Cc3ccccc3C2)NC(=O)[C@H](CCN)NC1=O [compound 8897, 3(R)OH-nC9CO-D-Dap-cyc[L-Dab-L-Dab-D-indanylgly-L-indanylgly-L-Dab-L-Dab-L-Trp]] ({Decanoyl(3R-OH)}-[dDap][Dab][Dab][dIgl][Igl][Dab][Dab]W; lactam 2-C) | 2 (≈ 1.68 µM) | 2 (≈ 1.68 µM) | 2 (≈ 1.68 µM) | 2 (≈ 1.68 µM) | 4 (≈ 3.36 µM) | 4 (≈ 3.36 µM) | 4 (≈ 3.36 µM) | 4 (≈ 3.36 µM) | 4 (≈ 3.36 µM) | 4 (≈ 3.36 µM) | 4 (≈ 3.36 µM) | 4 (≈ 3.36 µM) | 27
CCCCCCCC(=O)N[C@H](CCN)C(=O)N[C@H]1CCNC(=O)[C@H](Cc2c[nH]c3ccccc23)NC(=O)[C@H](CCN)NC(=O)[C@H](CCN)NC(=O)[C@H](C2Cc3ccccc3C2)NC(=O)[C@@H](Cc2ccccc2)NC(=O)[C@H](CCN)NC1=O [compound 8898, nC7CO-D-Dab-cyc[L-Dab-L-Dab-D-Phe-L-indanylgly-L-Dab-L-Dab-L-Trp]] (Octanoyl-[dDab][Dab][Dab][dF][Igl][Dab][Dab]W; lactam 2-C) | 4 (≈ 3.53 µM) | 4 (≈ 3.53 µM) | 4 (≈ 3.53 µM) | 4 (≈ 3.53 µM) | 16 (≈ 14.1 µM) | 16 (≈ 14.1 µM) | 8 (≈ 7.06 µM) | 4 (≈ 3.53 µM) | 4 (≈ 3.53 µM) | 8 (≈ 7.06 µM) | 4 (≈ 3.53 µM) | 4 (≈ 3.53 µM) | 90
CCCCCCC[C@@H](O)CC(=O)N[C@H](CCN)C(=O)N[C@H]1CCNC(=O)[C@H](Cc2c[nH]c3ccccc23)NC(=O)[C@H](CCN)NC(=O)[C@H](CCN)NC(=O)[C@H](CC(C)C)NC(=O)[C@@H](C2CCCCC2)NC(=O)[C@H](CCN)NC1=O [compound 8899, 3(R)OH-nC9CO-D-Dab-cyc[L-Dab-L-Dab-D-Chg-L-Leu-L-Dab-L-Dab-L-Trp]] ({Decanoyl(3R-OH)}-[dDab][Dab][Dab][dChg]L[Dab][Dab]W; lactam 2-C) | 2 (≈ 1.8 µM) | 4 (≈ 3.61 µM) | 4 (≈ 3.61 µM) | 8 (≈ 7.21 µM) | 16 (≈ 14.4 µM) | 16 (≈ 14.4 µM) | 8 (≈ 7.21 µM) | 4 (≈ 3.61 µM) | 4 (≈ 3.61 µM) | 16 (≈ 14.4 µM) | 4 (≈ 3.61 µM) | 8 (≈ 7.21 µM) | 64
CCCCCCCC(=O)N[C@H](CCN)C(=O)N[C@H]1CCNC(=O)[C@H](Cc2c[nH]c3ccccc23)NC(=O)[C@H](CCN)NC(=O)[C@H](CCN)NC(=O)[C@H](CC(C)C)NC(=O)[C@@H](C2Cc3ccccc3C2)NC(=O)[C@H](CCN)NC1=O [compound 8900, nC7CO-D-Dab-cyc[L-Dab-L-Dab-D-indanylgly-L-Leu-L-Dab-L-Dab-L-Trp]] (Octanoyl-[dDab][Dab][Dab][dIgl]L[Dab][Dab]W; lactam 2-C) | 8 (≈ 7.28 µM) | 4 (≈ 3.64 µM) | 4 (≈ 3.64 µM) | 8 (≈ 7.28 µM) | >32 | 32 (≈ 29.1 µM) | 16 (≈ 14.6 µM) | 4 (≈ 3.64 µM) | 8 (≈ 7.28 µM) | 16 (≈ 14.6 µM) | 8 (≈ 7.28 µM) | 16 (≈ 14.6 µM) | 115
CCCCCCCC(=O)N[C@H](CCN)C(=O)N[C@H]1CCNC(=O)[C@H](Cc2c[nH]c3ccccc23)NC(=O)[C@H](CCN)NC(=O)[C@H](CCN)NC(=O)[C@H](CC(C)C)NC(=O)[C@@H](Cc2ccccc2)NC(=O)[C@H](CCN)NC1=O [compound 8901, nC7CO-D-Dab-cyc[L-Dab-L-Dab-D-Phe-L-Leu-L-Dab-L-Dab-L-Trp]] (Octanoyl-[dDab][Dab][Dab][dF]L[Dab][Dab]W; lactam 2-C) | 8 (≈ 7.45 µM) | 8 (≈ 7.45 µM) | 2 (≈ 1.86 µM) | 16 (≈ 14.9 µM) | >32 | 32 (≈ 29.8 µM) | 8 (≈ 7.45 µM) | 2 (≈ 1.86 µM) | 8 (≈ 7.45 µM) | 32 (≈ 29.8 µM) | 8 (≈ 7.45 µM) | 32 (≈ 29.8 µM) | > 300
CCCCCCC[C@@H](O)CC(=O)N[C@H](CCN)C(=O)N[C@H]1CCNC(=O)[C@H](Cc2ccncc2)NC(=O)[C@H](CCN)NC(=O)[C@H](CCN)NC(=O)[C@H](CC(C)C)NC(=O)[C@@H](Cc2ccccc2)NC(=O)[C@H](CCN)NC1=O [compound 8906, 3(R)OH-nC9CO-D-Dab-cyc[L-Dab-L-Dab-D-Phe-L-Leu-L-Dab-L-Dab-L-Ala(4py)]] ({Decanoyl(3R-OH)}-[dDab][Dab][Dab][dF]L[Dab][Dab][4Pal]; lactam 2-C) | 2 (≈ 1.85 µM) | 4 (≈ 3.71 µM) | 0.5 (≈ 0.463 µM) | >32 | >32 | >32 | 4 (≈ 3.71 µM) | 1 (≈ 0.926 µM) | 4 (≈ 3.71 µM) | 16 (≈ 14.8 µM) | 8 (≈ 7.41 µM) | 16 (≈ 14.8 µM) | > 300
